This note sets out measurements from patent US11590139B2, “Substituted aminopurine compounds, compositions thereof, and methods of treatment therewith” (Signal Pharmaceuticals, LLC, priority 2014, dated 2023).

pIC50: −log10 of the molar value.

One experiment deals with Lox-IMVI melanoma cell line. In words: Lox-IMVI anti-proliferative assay (growth inhibition, Cell Titer-Glo). It is filed as cell-based, human. The settings on record: Homo sapiens; IC50 activity level in the cell-based Lox-IMVI anti-proliferative assay; read-out: Activity. In a few lines: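 IC50 values reflect the concentration giving 50% of DMSO-control luminescence after 72 h of treatment, fitted with a four-parameter logistic model. Cells were cultured in RPMI + 10% FBS with compound from 0.5 nM to 10 μM.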
On the technique in general: ATP-based viability assays read luminescence as a measure of living cells.
`NC(=O)[C@H]1CC[C@@H](n2c(Nc3c(Cl)cccc3Cl)nc3cnc(N[C@H]4CCC[C@@H](O)C4)nc32)CC1` [Example 370, (1R,4s)-4-(8-(2,6-dichlorophenylamino)-2-((1S,3R)-3-hydroxycyclohexylamino)-9H-purin-9-yl)cyclohexanecarboxamide]: the pIC50 is below 6.00. On the same count and under the same terms, the value for `NC(=O)[C@H]1CC[C@@H](n2c(Nc3c(F)cc(F)cc3Cl)nc3cnc(NC4CCC(F)(F)CC4)nc32)CC1` [Example 185, (1s,4s)-4-(8-(2-chloro-4,6-difluorophenylamino)-2-(4,4-difluorocyclohexylamino)-9H-purin-9-yl)cyclohexanecarboxamide] was above 6.60; that for `NC(=O)[C@H]1CC[C@@H](n2c(Nc3c(Cl)cc(Cl)cc3Cl)nc3cnc(N[C@@H]4CC[C@@H](O)C4)nc32)CC1` [Example 212, (1S,4s)-4-(2-((1R,3R)-3-hydroxycyclopentylamino)-8-(2,4,6-trichlorophenylamino)-9H-purin-9-yl)cyclohexanecarboxamide] was 6.30 to 6.60. On the same count and under the same terms, the value for `NC(=O)[C@H]1CC[C@@H](n2c(Nc3c(F)cc(Cl)cc3F)nc3cnc(N[C@@H]4CCC[C@H](O)C4)nc32)CC1` [Example 352, (1S,4s)-4-(8-(4-chloro-2,6-difluorophenylamino)-2-((1R,3S)-3-hydroxycyclohexylamino)-9H-purin-9-yl)cyclohexanecarboxamide] was 6.00 to 6.30.

For the molecule `NC(=O)[C@H]1CC[C@@H](n2c(Nc3c(F)ccc(F)c3F)nc3cnc(NC4CC(F)(F)C4)nc32)CC1` [Example 233, (1s,4s)-4-(2-(3,3-difluorocyclobutylamino)-8-(2,3,6-trifluorophenylamino)-9H-purin-9-yl)cyclohexanecarboxamide], the pIC50 is 6.00 to 6.30. On the same count and under the same terms, the result for `NC(=O)[C@H]1CC[C@@H](n2c(Nc3c(F)cc(F)cc3Cl)nc3cnc(NC4CC(F)(F)C4)nc32)CC1` [Example 228, (1s,4s)-4-(8-(2-chloro-4,6-difluorophenylamino)-2-(3,3-difluorocyclobutylamino)-9H-purin-9-yl)cyclohexanecarboxamide] reads 6.00 to 6.30. Still for that read-out and setting: the result for `NC(=O)[C@H]1CC[C@@H](n2c(Nc3cc(F)c(F)cc3Cl)nc3cnc(NC4CCOCC4)nc32)CC1` [Example 100, (1s,4s)-4-(8-(2-chloro-4,5-difluorophenylamino)-2-(tetrahydro-2H-pyran-4-ylamino)-9H-purin-9-yl)cyclohexanecarboxamide] reads below 6.00; that for `NC(=O)[C@H]1CC[C@@H](n2c(Nc3c(F)ccc(F)c3F)nc3cnc(N[C@@H]4CC[C@@H](O)C4)nc32)CC1` [Example 218, (1S,4s)-4-(2-((1R,3R)-3-hydroxycyclopentylamino)-8-(2,3,6-trifluorophenylamino)-9H-purin-9-yl)cyclohexanecarboxamide], below 6.00; that for `CC(C)(C)OC(=O)N1CC[C@H](Nc2ncc3nc(Nc4c(F)cc(Cl)cc4F)n([C@H]4CC[C@@H](C(N)=O)CC4)c3n2)[C@H](F)C1` [Example 155, (3R,4S)-tert-butyl 4-(9-((1s,4R)-4-carbamoylcyclohexyl)-8-(4-chloro-2,6-difluorophenylamino)-9H-purin-2-ylamino)-3-fluoropiperidine-1-carboxylate], below 6.00. On the same count and under the same terms, the value for `NC(=O)[C@H]1CC[C@@H](n2c(Nc3c(F)cccc3F)nc3cnc(N[C@@H]4CCC[C@H](O)C4)nc32)CC1` [Example 348, (1S,4s)-4-(8-(2,6-difluorophenylamino)-2-((1R,3S)-3-hydroxycyclohexylamino)-9H-purin-9-yl)cyclohexanecarboxamide] was below 6.00.

The experiment is the same for the next values; noted with them: Homo sapiens; Lox-IMVI anti-proliferative assay, IC50 activity level; read-out: Activity.
As to `C[C@@H]1COCC[C@@H]1Nc1ncc2nc(Nc3c(F)cc(Cl)cc3F)n([C@H]3CC[C@@H](C(N)=O)CC3)c2n1` [Example 509, (1R,4s)-4-(8-(4-chloro-2,6-difluorophenylamino)-2-((3S,4S)-3-methyltetrahydro-2H-pyran-4-ylamino)-9H-purin-9-yl)cyclohexanecarboxamide], the pIC50 is 6.00 to 6.30. The same measure, in the same setting: the value for `C[C@]1(C(N)=O)CC[C@@H](n2c(Nc3c(Cl)cc(C#N)cc3Cl)nc3cnc(NC4CCCC4)nc32)CC1` [Example 561, (1s,4s)-4-(2-(cyclopentylamino)-8-(2,6-dichloro-4-cyanophenylamino)-9H-purin-9-yl)-1-methylcyclohexanecarboxamide] was above 6.60.

In the case of `C[C@]1(C(N)=O)CC[C@@H](n2c(Nc3c(Cl)cc(Cl)cc3Cl)nc3cnc(NC4CCOCC4)nc32)CC1` [Example 522, (1s,4s)-1-methyl-4-(2-(tetrahydro-2H-pyran-4-ylamino)-8-(2,4,6-trichlorophenylamino)-9H-purin-9-yl)cyclohexanecarboxamide], the pIC50 was above 6.60. Same read-out and setting: the result for `N#Cc1cc(F)c(Nc2nc3cnc(NC4CC5(COC5)C4)nc3n2[C@H]2CC[C@@H](C(N)=O)CC2)c(F)c1` [Example 573, (1s,4s)-4-(2-(2-oxaspiro[3.3]heptan-6-ylamino)-8-(4-cyano-2,6-difluorophenylamino)-9H-purin-9-yl)cyclohexanecarboxamide] reads below 6.00; that for `NC(=O)[C@H]1CC[C@@H](n2c(Nc3c(F)cccc3Cl)nc3cnc(N[C@@H]4CCCC[C@H](O)C4)nc32)CC1` [Example 436, (1S,4s)-4-(8-(2-chloro-6-fluorophenylamino)-2-((1R,3S)-3-hydroxycycloheptylamino)-9H-purin-9-yl)cyclohexanecarboxamide], below 6.00. As for `C[C@]1(C(N)=O)CC[C@@H](n2c(Nc3c(F)cc(Cl)cc3Cl)nc3cnc(NC4CCCC4)nc32)CC1` [Example 557, (1s,4s)-4-(2-(cyclopentylamino)-8-(2,4-dichloro-6-fluorophenylamino)-9H-purin-9-yl)-1-methylcyclohexanecarboxamide], the pIC50 is above 6.60. Same read-out and setting: the value for `C[C@]1(C(N)=O)CC[C@@H](n2c(Nc3c(Cl)cc(Cl)cc3Cl)nc3cnc(N[C@@H]4CCC[C@H](O)C4)nc32)CC1` [Example 565, (1S,4s)-4-(2-((1R,3S)-3-hydroxycyclohexylamino)-8-(2,4,6-trichlorophenylamino)-9H-purin-9-yl)-1-methylcyclohexanecarboxamide] was above 6.60; that for `NC(=O)[C@H]1CC[C@@H](n2c(Nc3c(F)cc(Cl)cc3Cl)nc3cnc(N[C@H](CO)C(F)(F)F)nc32)CC1` [Example 471, (1S,4s)-4-(8-(2,4-dichloro-6-fluorophenylamino)-2-((R)-1,1,1-trifluoro-3-hydroxypropan-2-ylamino)-9H-purin-9-yl)cyclohexanecarboxamide] was below 6.00.

The experiment is the same for the next values; noted with them: Homo sapiens; Lox-IMVI melanoma cell line, anti-proliferative assay; read-out: Activity (IC50 activity level).
As to `C[C@]1(C(N)=O)CC[C@@H](n2c(Nc3c(Cl)cc(Cl)cc3Cl)nc3cnc(NC4CCC4)nc32)CC1` [Example 603, (1s,4s)-4-(2-(cyclobutylamino)-8-(2,4,6-trichlorophenylamino)-9H-purin-9-yl)-1-methylcyclohexanecarboxamide], the pIC50 is above 6.60. With `N#Cc1cc(F)c(Nc2nc3cnc(N[C@@H]4CCC(F)(F)C4)nc3n2[C@H]2CC[C@@H](C(N)=O)CC2)c(Cl)c1` [Example 698, (1S,4s)-4-(8-(2-chloro-4-cyano-6-fluorophenylamino)-2-((R)-3,3-difluorocyclopentylamino)-9H-purin-9-yl)cyclohexanecarboxamide], the pIC50 is above 6.60. On the same count and under the same terms, the value for `C[C@]1(C(N)=O)CC[C@@H](n2c(Nc3c(F)cc(Cl)cc3Cl)nc3cnc(NC4CC(F)(F)C4)nc32)CC1` [Example 651, (1s,4s)-4-(8-(2,4-dichloro-6-fluorophenylamino)-2-(3,3-difluorocyclobutylamino)-9H-purin-9-yl)-1-methylcyclohexanecarboxamide] was above 6.60. As to `NC(=O)[C@H]1CC[C@@H](n2c(Nc3c(F)cc(Cl)cc3F)nc3cnc(N[C@@H]4CCCN(c5ccccc5)C4)nc32)CC1` [Example 747, (1S,4s)-4-(8-(4-chloro-2,6-difluorophenylamino)-2-((R)-1-phenylpiperidin-3-ylamino)-9H-purin-9-yl)cyclohexanecarboxamide], the pIC50 is below 6.00. On the same count and under the same terms, the value for `NC(=O)[C@H]1CC[C@@H](n2c(Nc3c(F)cc(Cl)cc3F)nc3cnc(N[C@@H]4CCCN(C(=O)Nc5ccccc5)C4)nc32)CC1` [Example 782, (R)-3-(9-((1s,4S)-4-carbamoylcyclohexyl)-8-(4-chloro-2,6-difluorophenylamino)-9H-purin-2-ylamino)-N-phenylpiperidine-1-carboxamide] was below 6.00; that for `CC(C)OC(=O)N1CCC[C@@H](Nc2ncc3nc(Nc4c(F)cc(Cl)cc4Cl)n([C@H]4CC[C@@H](C(N)=O)CC4)c3n2)C1` [Example 774, (R)-isopropyl 3-(9-((1s,4S)-4-carbamoylcyclohexyl)-8-(2,4-dichloro-6-fluorophenylamino)-9H-purin-2-ylamino)piperidine-1-carboxylate] was 6.30 to 6.60. On the same count and under the same terms, the value for `NC(=O)[C@H]1CC[C@@H](n2c(Nc3c(F)cc(Cl)cc3Cl)nc3cnc(NC4CCC(c5ncno5)CC4)nc32)CC1` (stereo partly drawn) [Example 676, (1s,4s)-4-(2-(4-(1,2,4-oxadiazol-5-yl)cyclohexylamino)-8-(2,4-dichloro-6-fluorophenylamino)-9H-purin-9-yl)cyclohexanecarboxamide] was below 6.00; that for `C[C@]1(C(N)=O)CC[C@@H](n2c(Nc3c(F)cc(Cl)cc3F)nc3cnc(N[C@H]4CCC[C@@H](O)C4)nc32)CC1` [Example 632, (1R,4s)-4-(8-(4-chloro-2,6-difluorophenylamino)-2-((1S,3R)-3-hydroxycyclohexylamino)-9H-purin-9-yl)-1-methylcyclohexanecarboxamide] was 6.00 to 6.30. Consider `NC(=O)[C@H]1CC[C@@H](n2c(Nc3c(F)cc(F)cc3Cl)nc3cnc(N[C@H]4CCOC[C@H]4F)nc32)CC1` [Example 692, (1R,4s)-4-(8-(2-chloro-4,6-difluorophenylamino)-2-((3S,4S)-3-fluorotetrahydro-2H-pyran-4-ylamino)-9H-purin-9-yl)cyclohexanecarboxamide], for which the pIC50 was above 6.60.
